Results published in ChEMBL document CHEMBL4699602, “Stapled and Xenopus Glucagon-Like Peptide 1 (GLP-1)-Based Dual GLP-1/Gastrin Receptor Agonists with Improved Metabolic Benefits in Rodent Models of Obesity and Diabetes” (J Med Chem, 2020).
Calls of active or inactive are those of the source. The calls are words filed in the database; no cut-off is given here. *1 amine or outer side, *2 acyl side, *3 side chain or, on linkers, in order; H or OH if unused. Where a SMILES comes first, the peptide text is derived from it. Bridges are numbered along the chain shown (N, C = ends). [ ]: non-standard residue; d: D form. X4 = O=C(O)CCCCCCCCCCCCCCCCC(=O)NC(CCC(=O)NCCOCCOCC(=O)NCCOCCOCC(=O)NCCCCCCNC(=O)C(CCCCNC(=O)CCN1C(=O)CC([*:1])C1=O)NC(=O)CCN1C(=O)CC([*:2])C1=O)C(=O)O; X2 = O=C(O)CCCCCCCCCCCCCCCCC(=O)NC(CCC(=O)NCCOCCOCC(=O)NCCCCCCNC(=O)C(CCCCNC(=O)CCN1C(=O)CC([*:2])C1=O)NC(=O)CCN1C(=O)CC([*:1])C1=O)C(=O)O; X3 = O=C(O)CCCCCCCCCCCCCCCCC(=O)NC(CCC(=O)NCCOCCOCC(=O)NCCCCCCNC(=O)C(CCCCNC(=O)CCN1C(=O)CC([*:1])C1=O)NC(=O)CCN1C(=O)CC([*:2])C1=O)C(=O)O; X7 = O=C(O)CCCCCCCCCCCCCCCCC(=O)NCCOCCOCC(=O)NCCCCCCNC(=O)C(CCCCNC(=O)CCN1C(=O)CC([*:1])C1=O)NC(=O)CCN1C(=O)CC([*:2])C1=O; X8 = O=C(O)CCCCCCCCCCCCCCCCC(=O)NCCOCCOCC(=O)NCCCCCCNC(=O)C(CCCCNC(=O)CCN1C(=O)CC([*:2])C1=O)NC(=O)CCN1C(=O)CC([*:1])C1=O; X1 = CCCCCCCCCCCCCCCC(=O)NCCCCCCNC(=O)C(CCCCNC(=O)CCN1C(=O)CC([*:1])C1=O)NC(=O)CCN1C(=O)CC([*:2])C1=O; X6 = CCCCCCCCCCCCCCCC(=O)NCCCCCCNC(=O)C(CCCCNC(=O)CCN1C(=O)CC([*:2])C1=O)NC(=O)CCN1C(=O)CC([*:1])C1=O; Aib = CC(C)(N)C(=O)O

Key:
Mus musculus = assay: Hypoglycemic activity in ICR mouse assessed as decrease in blood glucose concentration at 25 nmol/kg, ip dosed 15 mins before test and measured up to 120 mins by OGTT method; format: functional, organism-based
[1] = target: T1, Glucagon-like peptide 1 receptor (Homo sapiens, UniProt P43220); assay: Agonist activity at human GLP-1R expressed in HEK293 cells assessed as stimulation of cAMP accumulation incubated for 20 mins in presence of 0% HSA; format: functional, cell-based
[2] = target: T1, Glucagon-like peptide 1 receptor; assay: Agonist activity at human GLP-1R expressed in HEK293 cells assessed as stimulation of cAMP accumulation incubated for 20 mins in presence of 4.4% HSA; format: functional, cell-based
[3] = target: T1, Glucagon-like peptide 1 receptor; assay: Ratio of EC50 for agonist activity at human GLP-1R expressed in HEK293 cells in presence of 4.4% HSA to EC50 for agonist activity at human GLP-1R expressed in HEK293 cells in presence of 0% HSA; format: cell-based

T1 sequence (P43220 whole entry): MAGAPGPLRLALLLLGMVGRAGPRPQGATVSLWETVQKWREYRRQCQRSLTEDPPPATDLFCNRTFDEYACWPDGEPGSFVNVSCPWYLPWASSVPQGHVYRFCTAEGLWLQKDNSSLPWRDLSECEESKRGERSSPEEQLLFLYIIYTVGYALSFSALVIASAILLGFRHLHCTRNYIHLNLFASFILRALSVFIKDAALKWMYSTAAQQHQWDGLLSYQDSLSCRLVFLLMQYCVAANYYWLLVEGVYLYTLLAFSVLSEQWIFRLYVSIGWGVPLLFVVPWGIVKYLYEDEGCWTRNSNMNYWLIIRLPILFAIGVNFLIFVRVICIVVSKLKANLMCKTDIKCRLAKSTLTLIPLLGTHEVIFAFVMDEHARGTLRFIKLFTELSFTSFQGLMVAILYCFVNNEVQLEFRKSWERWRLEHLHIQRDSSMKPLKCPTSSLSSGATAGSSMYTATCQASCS

Compound: CC[C@H](C)[C@H](NC(=O)[C@H](Cc1ccccc1)NC(=O)[C@H](CCC(=O)O)NC(=O)[C@H](CCCCN)NC(=O)[C@H](C)NC(=O)[C@H](C)NC(=O)[C@H](CCC(N)=O)NC(=O)CNC(=O)[C@H](CCC(=O)O)NC(=O)[C@H](CC(C)C)NC(=O)[C@H](Cc1ccc(O)cc1)NC(=O)[C@H](CO)NC(=O)[C@H](CO)NC(=O)[C@@H](NC(=O)[C@H](CC(=O)O)NC(=O)[C@H](CO)NC(=O)[C@@H](NC(=O)[C@H](Cc1ccccc1)NC(=O)[C@@H](NC(=O)CNC(=O)[C@H](CCC(=O)O)NC(=O)[C@H](C)NC(=O)[C@@H](N)Cc1cnc[nH]1)[C@@H](C)O)[C@@H](C)O)C(C)C)C(=O)N[C@@H](C)C(=O)N[C@@H](Cc1c[nH]c2ccccc12)C(=O)N[C@@H](CC(C)C)C(=O)N[C@H](C(=O)N[C@@H](CCCCN)C(=O)NCC(=O)N[C@@H](CCCNC(=N)N)C(=O)O)C(C)C
- Activity (Mus musculus): Active

Compound: CCCCCCCCCCCCCCCC(=O)NCCCCCCNC(=O)C1CCCCNC(=O)CCN2C(=O)CC(SC[C@@H](C(=O)NCC(=O)N[C@@H](CCCCN)C(N)=O)NC(=O)[C@H]([C@@H](C)CC)NC(=O)[C@H](CC(C)C)NC(=O)[C@H](Cc3c[nH]c4ccccc34)NC(=O)[C@H](CCC(=O)O)NC(=O)[C@H]([C@@H](C)CC)NC(=O)[C@H](Cc3ccccc3)NC(=O)[C@@H](NC(=O)[C@H](CCCCN)NC(=O)[C@H](C)NC(=O)[C@H](C)NC(=O)[C@H](CCC(=O)O)NC(=O)[C@H](CCC(=O)O)NC(=O)[C@H](CCC(=O)O)NC(=O)[C@H](CC(C)C)NC(=O)[C@H](Cc3ccc(O)cc3)NC(=O)[C@H](CCC(=O)O)NC(=O)[C@@H](NC(=O)[C@@H](NC(=O)[C@H](CC(=O)O)NC(=O)[C@H](CC(N)=O)NC(=O)[C@@H](NC(=O)[C@H](Cc3ccc(O)cc3)NC(=O)[C@@H](NC(=O)CNC(=O)[C@H](CCC(=O)O)NC(=O)C(C)(C)NC(=O)[C@@H](N)Cc3c[nH]cn3)[C@@H](C)O)[C@@H](C)O)C(C)C)[C@@H](C)O)CSC3CC(=O)N(CCC(=O)N1)C3=O)C2=O (stereo partly specified) (HELM PEPTIDE1{H.[Aib].E.G.T.Y.T.N.D.V.T.E.Y.L.E.E.E.A.A.K.C.F.I.E.W.L.I.C.G.K.[am]}|CHEM1{[CCCCCCCCCCCCCCCC(=O)NCCCCCCNC(=O)C(CCCCNC(=O)CCN1C(=O)CC([*:2])C1=O)NC(=O)CCN1C(=O)CC([*:1])C1=O]}$PEPTIDE1,CHEM1,21:R3-1:R1|PEPTIDE1,CHEM1,28:R3-1:R2$$$V2.0)
- EC50 [1]: 0.12 nM
- EC50 [2]: 2.2 nM
- Ratio EC50 [3]: 18.3

Compound: CC[C@H](C)[C@@H]1NC(=O)[C@H](CC(C)C)NC(=O)[C@H](Cc2c[nH]c3ccccc23)NC(=O)[C@H](CCC(=O)O)NC(=O)[C@H]([C@@H](C)CC)NC(=O)[C@H](Cc2ccccc2)NC(=O)[C@@H](NC(=O)[C@H](CCCCN)NC(=O)[C@H](C)NC(=O)[C@H](C)NC(=O)[C@H](CCC(=O)O)NC(=O)[C@H](CCC(=O)O)NC(=O)[C@H](CCC(=O)O)NC(=O)[C@H](CC(C)C)NC(=O)[C@H](Cc2ccc(O)cc2)NC(=O)[C@H](CCC(=O)O)NC(=O)[C@@H](NC(=O)[C@@H](NC(=O)[C@H](CC(=O)O)NC(=O)[C@H](CC(N)=O)NC(=O)[C@@H](NC(=O)[C@H](Cc2ccc(O)cc2)NC(=O)[C@@H](NC(=O)CNC(=O)[C@H](CCC(=O)O)NC(=O)C(C)(C)NC(=O)[C@@H](N)Cc2c[nH]cn2)[C@@H](C)O)[C@@H](C)O)C(C)C)[C@@H](C)O)CSC2CC(=O)N(CCC(=O)NC(C(=O)NCCCCCCNC(=O)COCCOCCNC(=O)COCCOCCNC(=O)CCC(NC(=O)CCCCCCCCCCCCCCCCC(=O)O)C(=O)O)CCCCNC(=O)CCN3C(=O)CC(SC[C@@H](C(=O)NCC(=O)N[C@@H](CCCCN)C(N)=O)NC1=O)C3=O)C2=O (stereo partly specified) (HELM PEPTIDE1{H.[Aib].E.G.T.Y.T.N.D.V.T.E.Y.L.E.E.E.A.A.K.C.F.I.E.W.L.I.C.G.K.[am]}|CHEM1{[O=C(O)CCCCCCCCCCCCCCCCC(=O)NC(CCC(=O)NCCOCCOCC(=O)NCCOCCOCC(=O)NCCCCCCNC(=O)C(CCCCNC(=O)CCN1C(=O)CC([*:2])C1=O)NC(=O)CCN1C(=O)CC([*:1])C1=O)C(=O)O]}$PEPTIDE1,CHEM1,21:R3-1:R1|PEPTIDE1,CHEM1,28:R3-1:R2$$$V2.0)
- EC50 [1]: 0.19 nM
- EC50 [2]: 18.2 nM
- Ratio EC50 [3]: 95.8

Compound: CC[C@H](C)[C@@H]1NC(=O)[C@H](CC(C)C)NC(=O)[C@H](Cc2c[nH]c3ccccc23)NC(=O)[C@H](CCC(=O)O)NC(=O)[C@H]([C@@H](C)CC)NC(=O)[C@H](Cc2ccccc2)NC(=O)[C@@H](NC(=O)[C@H](CCCCN)NC(=O)[C@H](C)NC(=O)[C@H](C)NC(=O)[C@H](CCC(=O)O)NC(=O)[C@H](CCC(=O)O)NC(=O)[C@H](CCC(=O)O)NC(=O)[C@H](CC(C)C)NC(=O)[C@H](Cc2ccc(O)cc2)NC(=O)[C@H](CCC(=O)O)NC(=O)[C@@H](NC(=O)[C@@H](NC(=O)[C@H](CC(=O)O)NC(=O)[C@H](CC(N)=O)NC(=O)[C@@H](NC(=O)[C@H](Cc2ccc(O)cc2)NC(=O)[C@@H](NC(=O)CNC(=O)[C@H](CCC(=O)O)NC(=O)C(C)(C)NC(=O)[C@@H](N)Cc2c[nH]cn2)[C@@H](C)O)[C@@H](C)O)C(C)C)[C@@H](C)O)CSC2CC(=O)N(CCC(=O)NC(C(=O)NCCCCCCNC(=O)COCCOCCNC(=O)CCCCCCCCCCCCCCCCC(=O)O)CCCCNC(=O)CCN3C(=O)CC(SC[C@@H](C(=O)NCC(=O)N[C@@H](CCCCN)C(N)=O)NC1=O)C3=O)C2=O (stereo partly specified) (HELM PEPTIDE1{H.[Aib].E.G.T.Y.T.N.D.V.T.E.Y.L.E.E.E.A.A.K.C.F.I.E.W.L.I.C.G.K.[am]}|CHEM1{[O=C(O)CCCCCCCCCCCCCCCCC(=O)NCCOCCOCC(=O)NCCCCCCNC(=O)C(CCCCNC(=O)CCN1C(=O)CC([*:2])C1=O)NC(=O)CCN1C(=O)CC([*:1])C1=O]}$PEPTIDE1,CHEM1,21:R3-1:R1|PEPTIDE1,CHEM1,28:R3-1:R2$$$V2.0)
- EC50 [1]: 0.19 nM
- EC50 [2]: 2.6 nM
- Ratio EC50 [3]: 13.7

Compound: H-H[Aib]EGTYTNDVTEYCEEEAAKCFIEWLIKGKPSSGAPPSKKKKKK-NH2 (linker 14-21 via X1)
- EC50 [1]: 0.093 nM
- EC50 [2]: 1.4 nM
- Ratio EC50 [3]: 15.1

Compound: H-H[Aib]EGTYTNDVTEYCEEEAAKCFIEWLIKGKPSSGAPPSKKKKKK-NH2 (linker 14-21 via X3)
- EC50 [1]: 0.16 nM
- EC50 [2]: 6.5 nM
- Ratio EC50 [3]: 40.6

Compound: H-H[Aib]EGTYTNDVTEYCEEEAAKCFIEWLIKGKPSSGAPPSKKKKKK-NH2 (linker 14-21 via X4)
- EC50 [1]: 0.15 nM
- EC50 [2]: 12.7 nM
- Ratio EC50 [3]: 84.7

Compound: H-H[Aib]EGTYTNDVTEYCEEEAAKCFIEWLIKGKPSSGAPPSKKKKKK-NH2 (linker 14-21 via X7)
- EC50 [1]: 0.1 nM
- EC50 [2]: 1.4 nM
- Ratio EC50 [3]: 14

Compound: H-H[Aib]EGTYTNDVTEYLEEEAAKCFIEWLICGKPSSGAPPSKKKKKK-NH2 (linker 21-28 via X2)
- EC50 [1]: 0.18 nM
- EC50 [2]: 6.9 nM
- Ratio EC50 [3]: 38.3

Compound: H-H[Aib]EGTYTNDVTEYLEEEAAKCFIEWLICGKPSSGAPPSKKKKKK-NH2 (linker 21-28 via X6)
- EC50 [1]: 0.14 nM
- EC50 [2]: 1.9 nM
- Ratio EC50 [3]: 13.6

Compound: H-H[Aib]EGTYTNDVTEYLEEEAAKCFIEWLICGKPSSGAPPSKKKKKK-NH2 (linker 21-28 via X8)
- EC50 [1]: 0.12 nM
- EC50 [2]: 1.5 nM
- Ratio EC50 [3]: 12.5
